Measured values taken from doi:10.1101/2024.08.19.608619, “Discovery of potent SARS-CoV-2 nsp3 macrodomain inhibitors uncovers lack of translation to cellular antiviral response” (bioRxiv, 2024).
Values joined by “and” are separate entries in the source; they are usually repeats but may differ in a detail not shown here. Equal entries are not always repeated.

Tested on: not listed separately
Test: Hepatic microsomal stability, HLM
Format: in vitro ADME, human
Settings: In vitro human liver microsomal stability

SMILES | clint | perc_remaining | t_half
CC(C)[C@H](Nc1ncnc2[nH]ccc12)c1ccc2c(c1)S(=O)(=O)CCC2 [ASAP-0008674] | 57.0 µL/min/mg | 37.0% | 29.5 min

Same assay, conditions: In vitro human liver microsomal stability; no cofactor

SMILES | perc_remaining_no_cofactor
CC(C)[C@H](Nc1ncnc2[nH]ccc12)c1ccc2c(c1)S(=O)(=O)CCC2 [ASAP-0008674] | 92.0%

Tested on: not listed separately
Test: In vitro rat hepatocyte stability
Format: in vitro ADME
Settings: not given
From the text: Supplement media-1.zip/Hepatocyte_Stability.csv, table | column: clint; t_half

SMILES | clint | t_half
CC(C)[C@H](Nc1ncnc2[nH]ccc12)c1ccc2c(c1)S(=O)(=O)CCC2 [ASAP-0008674] | 75.8 uL/min/1E6 cells | 9.15 min

Tested on: CYP
Test: CYP inhibition
Format: in vitro ADME
Settings: isoform 1A2; In vitro CYP inhibition pooled
From the text: Supplement media-1.zip/CYP_Inhibition.csv, table | column: ic50; potency

SMILES | IC50
CC(C)[C@H](Nc1ncnc2[nH]ccc12)c1ccc2c(c1)S(=O)(=O)CCC2 [ASAP-0008674] | > 50 µM

Same assay, conditions: isoform 1A2; In vitro CYP inhibition pooled; potency class in words

SMILES | potency
CC(C)[C@H](Nc1ncnc2[nH]ccc12)c1ccc2c(c1)S(=O)(=O)CCC2 [ASAP-0008674] | weak

Same assay, conditions: isoform 2C9; In vitro CYP inhibition pooled

SMILES | IC50
CC(C)[C@H](Nc1ncnc2[nH]ccc12)c1ccc2c(c1)S(=O)(=O)CCC2 [ASAP-0008674] | 18.2 µM

Same assay, conditions: isoform 2C9; In vitro CYP inhibition pooled; potency class in words

SMILES | potency
CC(C)[C@H](Nc1ncnc2[nH]ccc12)c1ccc2c(c1)S(=O)(=O)CCC2 [ASAP-0008674] | weak

Same assay, conditions: isoform 2C19; In vitro CYP inhibition pooled

SMILES | IC50
CC(C)[C@H](Nc1ncnc2[nH]ccc12)c1ccc2c(c1)S(=O)(=O)CCC2 [ASAP-0008674] | 15 µM

Same assay, conditions: isoform 2C19; In vitro CYP inhibition pooled; potency class in words

SMILES | potency
CC(C)[C@H](Nc1ncnc2[nH]ccc12)c1ccc2c(c1)S(=O)(=O)CCC2 [ASAP-0008674] | weak

Same assay, conditions: isoform 2D6; In vitro CYP inhibition pooled

SMILES | IC50
CC(C)[C@H](Nc1ncnc2[nH]ccc12)c1ccc2c(c1)S(=O)(=O)CCC2 [ASAP-0008674] | > 50 µM

Same assay, conditions: isoform 2D6; In vitro CYP inhibition pooled; potency class in words

SMILES | potency
CC(C)[C@H](Nc1ncnc2[nH]ccc12)c1ccc2c(c1)S(=O)(=O)CCC2 [ASAP-0008674] | weak

Same assay, conditions: isoform 3A4; In vitro CYP inhibition pooled

SMILES | IC50
CC(C)[C@H](Nc1ncnc2[nH]ccc12)c1ccc2c(c1)S(=O)(=O)CCC2 [ASAP-0008674] | 3.2 µM

Same assay, conditions: isoform 3A4; In vitro CYP inhibition pooled; potency class in words

SMILES | potency
CC(C)[C@H](Nc1ncnc2[nH]ccc12)c1ccc2c(c1)S(=O)(=O)CCC2 [ASAP-0008674] | moderate

Target: T1, alpha2A (h) (Homo sapiens, UniProt P08913)
T1 construct: purchased Eurofins Cerep (SafetyScreen44), recognised from the panel format
T1 sequence (P08913 1-465): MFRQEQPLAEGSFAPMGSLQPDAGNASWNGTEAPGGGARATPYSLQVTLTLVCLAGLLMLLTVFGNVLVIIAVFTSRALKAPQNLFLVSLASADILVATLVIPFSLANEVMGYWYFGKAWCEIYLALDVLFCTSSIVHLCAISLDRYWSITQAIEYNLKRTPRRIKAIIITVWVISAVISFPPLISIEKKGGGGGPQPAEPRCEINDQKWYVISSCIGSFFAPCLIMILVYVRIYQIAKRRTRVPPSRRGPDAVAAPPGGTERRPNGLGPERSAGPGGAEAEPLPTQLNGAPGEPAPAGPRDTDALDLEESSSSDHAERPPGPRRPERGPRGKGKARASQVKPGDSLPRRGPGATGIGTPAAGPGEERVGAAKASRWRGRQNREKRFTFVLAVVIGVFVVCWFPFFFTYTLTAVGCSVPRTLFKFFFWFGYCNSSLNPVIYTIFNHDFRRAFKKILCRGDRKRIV
Test: In vitro CEREP profiling, alpha2A (h) (antagonist radioligand)
Format: binding
Settings: test compound 10 uM
From the text: (§1) Supplement media-1.zip/Safety_Panel_Profile.csv, table | column: perc_inhibition

SMILES | perc_inhibition (% inhibition of the binding of a ligand specific for each target)
CC(C)[C@H](Nc1ncnc2[nH]ccc12)c1ccc2c(c1)S(=O)(=O)CCC2 [ASAP-0008674] | 10%

Target: T2, COX2(h) (Homo sapiens, UniProt P35354)
T2 construct: purchased Eurofins Cerep (SafetyScreen44), recognised from the panel format
T2 sequence (P35354 18-604): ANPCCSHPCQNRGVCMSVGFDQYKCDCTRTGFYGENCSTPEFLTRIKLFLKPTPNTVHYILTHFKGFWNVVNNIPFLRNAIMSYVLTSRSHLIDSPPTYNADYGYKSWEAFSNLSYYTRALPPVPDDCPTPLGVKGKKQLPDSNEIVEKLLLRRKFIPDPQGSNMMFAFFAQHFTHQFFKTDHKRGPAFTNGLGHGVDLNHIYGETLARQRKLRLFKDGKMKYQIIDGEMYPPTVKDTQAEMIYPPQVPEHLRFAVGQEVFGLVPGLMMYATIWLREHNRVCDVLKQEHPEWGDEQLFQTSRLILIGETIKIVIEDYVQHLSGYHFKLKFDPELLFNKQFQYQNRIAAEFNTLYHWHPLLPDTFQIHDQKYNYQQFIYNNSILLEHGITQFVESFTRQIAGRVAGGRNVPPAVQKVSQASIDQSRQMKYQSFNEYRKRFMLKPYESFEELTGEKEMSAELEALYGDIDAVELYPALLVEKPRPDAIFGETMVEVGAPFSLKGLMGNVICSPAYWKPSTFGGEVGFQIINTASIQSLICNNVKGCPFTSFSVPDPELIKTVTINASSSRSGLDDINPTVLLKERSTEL
Test: In vitro CEREP profiling, COX2(h)
Format: biochemical
Settings: test compound concentration 10 uM; Enzyme and Cell-based assays
From the text: as §1

SMILES | perc_inhibition: % inhibition of control enzyme activity, COX2(h)
CC(C)[C@H](Nc1ncnc2[nH]ccc12)c1ccc2c(c1)S(=O)(=O)CCC2 [ASAP-0008674] | 23%

Tested on: Vero E6/TMPRSS2
Test: Vero E6/TMPRSS2 cytotoxicity with P-gp inhibitor
Format: cell-based
Settings: not given
From the text: Supplement media-1.zip/Cytotoxicity.csv, table | column: cc10; cc50; perc_min_measured; perc_max_measured

SMILES | CC50 | cc10
CC(C)[C@H](Nc1ncnc2[nH]ccc12)c1ccc2c(c1)S(=O)(=O)CCC2 [ASAP-0008674] | > 5 µM | > 5.0 µM

Same assay, conditions: highest measured response of the dose series

SMILES | perc_max_measured
CC(C)[C@H](Nc1ncnc2[nH]ccc12)c1ccc2c(c1)S(=O)(=O)CCC2 [ASAP-0008674] | 135.379% and 119.601%

Same assay, conditions: lowest measured response of the dose series

SMILES | perc_min_measured
CC(C)[C@H](Nc1ncnc2[nH]ccc12)c1ccc2c(c1)S(=O)(=O)CCC2 [ASAP-0008674] | 95.549% and 105.983%

Target: T3, beta1 (h) (Homo sapiens, UniProt P08588)
T3 construct: purchased Eurofins Cerep (SafetyScreen44), recognised from the panel format
T3 sequence (P08588 whole entry): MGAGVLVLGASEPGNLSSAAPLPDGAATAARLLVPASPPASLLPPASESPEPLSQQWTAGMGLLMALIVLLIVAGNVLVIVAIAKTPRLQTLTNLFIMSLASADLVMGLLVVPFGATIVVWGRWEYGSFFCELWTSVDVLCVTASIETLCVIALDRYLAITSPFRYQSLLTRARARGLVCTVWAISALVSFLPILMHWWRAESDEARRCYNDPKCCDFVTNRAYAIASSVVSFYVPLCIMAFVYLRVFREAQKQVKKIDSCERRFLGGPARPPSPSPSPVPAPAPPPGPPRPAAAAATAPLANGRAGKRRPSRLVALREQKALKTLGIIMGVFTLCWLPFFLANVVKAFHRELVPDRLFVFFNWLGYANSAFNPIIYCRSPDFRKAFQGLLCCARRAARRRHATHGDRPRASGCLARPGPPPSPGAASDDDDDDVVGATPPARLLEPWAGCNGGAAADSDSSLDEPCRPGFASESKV
Test: In vitro CEREP profiling, beta1 (h) (agonist radioligand)
Format: binding
Settings: test compound 10 uM
From the text: as §1

SMILES | perc_inhibition (% inhibition of the binding of a ligand specific for each target)
CC(C)[C@H](Nc1ncnc2[nH]ccc12)c1ccc2c(c1)S(=O)(=O)CCC2 [ASAP-0008674] | 11%

Target: T4, PDE3A (h) (Homo sapiens, UniProt Q14432)
T4 construct: purchased Eurofins Cerep (SafetyScreen44), recognised from the panel format
T4 sequence (Q14432 whole entry): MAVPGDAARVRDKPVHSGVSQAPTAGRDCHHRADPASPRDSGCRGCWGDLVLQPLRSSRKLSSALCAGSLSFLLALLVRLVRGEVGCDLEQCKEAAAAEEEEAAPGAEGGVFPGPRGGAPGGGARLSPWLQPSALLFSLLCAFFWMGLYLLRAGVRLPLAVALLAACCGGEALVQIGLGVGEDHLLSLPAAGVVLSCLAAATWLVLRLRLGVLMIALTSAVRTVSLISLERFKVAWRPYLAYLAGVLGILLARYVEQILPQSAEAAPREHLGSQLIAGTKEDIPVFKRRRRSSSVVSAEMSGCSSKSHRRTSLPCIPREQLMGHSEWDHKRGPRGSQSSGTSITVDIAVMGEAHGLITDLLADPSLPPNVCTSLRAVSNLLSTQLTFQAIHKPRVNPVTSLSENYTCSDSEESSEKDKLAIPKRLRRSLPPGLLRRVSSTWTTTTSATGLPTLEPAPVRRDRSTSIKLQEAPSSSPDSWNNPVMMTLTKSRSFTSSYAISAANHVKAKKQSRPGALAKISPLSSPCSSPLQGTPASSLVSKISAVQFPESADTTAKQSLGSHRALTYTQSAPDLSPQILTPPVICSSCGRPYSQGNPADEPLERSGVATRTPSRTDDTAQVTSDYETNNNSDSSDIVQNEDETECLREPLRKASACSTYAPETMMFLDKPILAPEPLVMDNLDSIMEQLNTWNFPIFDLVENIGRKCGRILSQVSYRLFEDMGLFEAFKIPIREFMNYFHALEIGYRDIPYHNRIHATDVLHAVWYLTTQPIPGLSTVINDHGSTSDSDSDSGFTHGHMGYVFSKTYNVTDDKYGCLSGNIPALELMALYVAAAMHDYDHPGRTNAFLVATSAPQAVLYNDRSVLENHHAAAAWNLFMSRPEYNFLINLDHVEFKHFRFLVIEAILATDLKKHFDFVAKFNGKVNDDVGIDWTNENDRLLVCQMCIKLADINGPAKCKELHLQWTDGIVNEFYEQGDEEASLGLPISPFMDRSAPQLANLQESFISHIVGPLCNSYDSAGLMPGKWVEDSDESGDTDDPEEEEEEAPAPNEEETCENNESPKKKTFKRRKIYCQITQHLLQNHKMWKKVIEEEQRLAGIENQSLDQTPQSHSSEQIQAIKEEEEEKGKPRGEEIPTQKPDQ
Test: In vitro CEREP profiling, PDE3A (h)
Format: biochemical
Settings: test compound concentration 10 uM; Enzyme and Cell-based assays
From the text: as §1

SMILES | perc_inhibition: % inhibition of control enzyme activity, PDE3A (h)
CC(C)[C@H](Nc1ncnc2[nH]ccc12)c1ccc2c(c1)S(=O)(=O)CCC2 [ASAP-0008674] | 29%

Target: T5, PDE4D2 (h) (Homo sapiens, UniProt Q08499)
T5 construct: purchased Eurofins Cerep (SafetyScreen44), recognised from the panel format
T5 sequence (Q08499 303-809): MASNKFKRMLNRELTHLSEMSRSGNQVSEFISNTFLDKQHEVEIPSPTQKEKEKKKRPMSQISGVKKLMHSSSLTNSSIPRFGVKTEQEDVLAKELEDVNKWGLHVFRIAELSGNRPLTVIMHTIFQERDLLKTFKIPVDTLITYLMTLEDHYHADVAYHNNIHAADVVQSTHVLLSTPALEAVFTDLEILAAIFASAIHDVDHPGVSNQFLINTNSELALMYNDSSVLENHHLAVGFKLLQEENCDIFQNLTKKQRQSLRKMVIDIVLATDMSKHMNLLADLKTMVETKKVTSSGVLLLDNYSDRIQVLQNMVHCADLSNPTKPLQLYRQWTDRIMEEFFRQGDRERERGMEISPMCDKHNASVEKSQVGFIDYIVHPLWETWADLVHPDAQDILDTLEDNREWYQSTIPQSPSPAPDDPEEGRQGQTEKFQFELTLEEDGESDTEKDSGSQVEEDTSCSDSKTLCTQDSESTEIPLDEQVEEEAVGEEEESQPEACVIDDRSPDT
Test: In vitro CEREP profiling, PDE4D2 (h)
Format: biochemical
Settings: test compound concentration 10 uM; Enzyme and Cell-based assays
From the text: as §1

SMILES | perc_inhibition: % inhibition of control enzyme activity, PDE4D2 (h)
CC(C)[C@H](Nc1ncnc2[nH]ccc12)c1ccc2c(c1)S(=O)(=O)CCC2 [ASAP-0008674] | 36%

Target: T6, Lck kinase (h) (Homo sapiens, UniProt P06239)
T6 construct: purchased Eurofins Cerep (SafetyScreen44), recognised from the panel format
T6 sequence (P06239 whole entry): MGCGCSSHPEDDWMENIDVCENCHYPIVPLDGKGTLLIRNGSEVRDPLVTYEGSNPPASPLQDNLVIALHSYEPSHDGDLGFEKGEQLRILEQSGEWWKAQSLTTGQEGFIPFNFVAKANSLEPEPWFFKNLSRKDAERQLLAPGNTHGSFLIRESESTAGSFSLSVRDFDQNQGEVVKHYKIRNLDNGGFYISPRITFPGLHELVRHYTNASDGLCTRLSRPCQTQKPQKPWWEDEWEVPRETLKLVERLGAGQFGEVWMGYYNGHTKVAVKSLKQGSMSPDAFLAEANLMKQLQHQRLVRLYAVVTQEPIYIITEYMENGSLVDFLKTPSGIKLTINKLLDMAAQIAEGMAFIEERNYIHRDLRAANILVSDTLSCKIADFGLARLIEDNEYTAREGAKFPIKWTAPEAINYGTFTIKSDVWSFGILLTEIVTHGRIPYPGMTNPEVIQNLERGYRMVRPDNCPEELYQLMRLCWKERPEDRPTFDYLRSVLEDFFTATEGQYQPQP
Test: In vitro CEREP profiling, Lck kinase (h)
Format: biochemical
Settings: test compound concentration 10 uM; Enzyme and Cell-based assays
From the text: as §1

SMILES | perc_inhibition: % inhibition of control enzyme activity, Lck kinase (h)
CC(C)[C@H](Nc1ncnc2[nH]ccc12)c1ccc2c(c1)S(=O)(=O)CCC2 [ASAP-0008674] | 10%

Tested on: Ca2+ channel (L, dihydropyridine site)
Test: In vitro CEREP profiling, Ca2+ channel (L, dihydropyridine site) (antagonist radioligand)
Format: binding
Settings: test compound concentration 10 uM
From the text: as §1

SMILES | perc_inhibition (% inhibition of the binding of a ligand specific for each target)
CC(C)[C@H](Nc1ncnc2[nH]ccc12)c1ccc2c(c1)S(=O)(=O)CCC2 [ASAP-0008674] | 12%

Target: T7, Potassium Channel hERG (human) (Homo sapiens, UniProt Q12809)
T7 construct: purchased Eurofins Cerep (SafetyScreen44), recognised from the panel format
T7 sequence (Q12809 whole entry): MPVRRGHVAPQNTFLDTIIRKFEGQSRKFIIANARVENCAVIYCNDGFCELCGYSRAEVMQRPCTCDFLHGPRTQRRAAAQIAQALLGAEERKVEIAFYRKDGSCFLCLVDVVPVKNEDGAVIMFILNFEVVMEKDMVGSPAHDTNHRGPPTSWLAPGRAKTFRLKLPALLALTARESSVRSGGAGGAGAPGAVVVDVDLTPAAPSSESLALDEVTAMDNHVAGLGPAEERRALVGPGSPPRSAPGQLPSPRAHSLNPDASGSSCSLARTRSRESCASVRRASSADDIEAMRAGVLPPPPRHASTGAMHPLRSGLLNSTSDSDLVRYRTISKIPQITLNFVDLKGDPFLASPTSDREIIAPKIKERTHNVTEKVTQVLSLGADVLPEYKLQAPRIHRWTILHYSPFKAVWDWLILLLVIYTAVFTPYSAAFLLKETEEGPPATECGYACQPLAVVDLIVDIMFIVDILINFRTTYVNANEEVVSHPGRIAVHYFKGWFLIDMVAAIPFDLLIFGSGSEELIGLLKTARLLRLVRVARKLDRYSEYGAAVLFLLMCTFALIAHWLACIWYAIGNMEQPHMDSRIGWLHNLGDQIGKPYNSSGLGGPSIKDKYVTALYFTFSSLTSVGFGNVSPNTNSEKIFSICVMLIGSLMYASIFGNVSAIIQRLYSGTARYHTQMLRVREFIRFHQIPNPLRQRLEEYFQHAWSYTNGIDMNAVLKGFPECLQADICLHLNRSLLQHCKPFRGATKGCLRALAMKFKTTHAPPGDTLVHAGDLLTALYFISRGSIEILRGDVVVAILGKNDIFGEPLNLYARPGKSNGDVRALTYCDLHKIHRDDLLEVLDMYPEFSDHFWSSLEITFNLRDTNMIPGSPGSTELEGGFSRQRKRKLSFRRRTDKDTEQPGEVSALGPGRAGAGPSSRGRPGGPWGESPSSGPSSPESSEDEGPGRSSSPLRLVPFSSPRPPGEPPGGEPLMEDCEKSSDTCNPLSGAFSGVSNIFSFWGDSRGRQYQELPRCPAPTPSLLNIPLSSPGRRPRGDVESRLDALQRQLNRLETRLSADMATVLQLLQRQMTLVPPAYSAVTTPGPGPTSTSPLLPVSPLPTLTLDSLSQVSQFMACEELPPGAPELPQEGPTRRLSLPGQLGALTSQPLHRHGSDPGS
Test: In vitro CEREP profiling, Potassium Channel hERG (human)- [3H] Dofetilide
Format: binding
Settings: test compound concentration 10 uM
From the text: as §1

SMILES | perc_inhibition (% inhibition of the binding of a ligand specific for each target)
CC(C)[C@H](Nc1ncnc2[nH]ccc12)c1ccc2c(c1)S(=O)(=O)CCC2 [ASAP-0008674] | 20%

Target: hERG (Homo sapiens, UniProt Q12809)
Sequence (Q12809 whole entry): as above
Test: In vitro hERG cardiotoxocity
Settings: at top test concentration 30 uM
From the text: Supplement media-1.zip/Cardiotoxicity.csv, table | column: ic50; perc_inhibition_top_conc

SMILES | perc_inhibition_top_conc
CC(C)[C@H](Nc1ncnc2[nH]ccc12)c1ccc2c(c1)S(=O)(=O)CCC2 [ASAP-0008674] | 39.0%

Same assay, conditions: top test concentration 30 uM

SMILES | IC50
CC(C)[C@H](Nc1ncnc2[nH]ccc12)c1ccc2c(c1)S(=O)(=O)CCC2 [ASAP-0008674] | > 30 µM

Tested on: KV channel
Test: In vitro CEREP profiling, KV channel (antagonist radioligand)
Format: binding
Settings: test compound concentration 10 uM
From the text: as §1

SMILES | perc_inhibition (% inhibition of the binding of a ligand specific for each target)
CC(C)[C@H](Nc1ncnc2[nH]ccc12)c1ccc2c(c1)S(=O)(=O)CCC2 [ASAP-0008674] | -10%

Tested on: Na+ channel (site 2)
Test: In vitro CEREP profiling, Na+ channel (site 2) (antagonist radioligand)
Format: binding
Settings: test compound concentration 10 uM
From the text: as §1

SMILES | perc_inhibition (% inhibition of the binding of a ligand specific for each target)
CC(C)[C@H](Nc1ncnc2[nH]ccc12)c1ccc2c(c1)S(=O)(=O)CCC2 [ASAP-0008674] | -5%

Tested on: MERS-CoV
Test: microbe, parasite or virus in culture
Format: cell-based
Settings: Vero E6/TMPRSS2 MERS-CoV antiviral effect with P-gp inhibitor; maximum measured response of dose series

SMILES | perc_max_measured
CC(C)[C@H](Nc1ncnc2[nH]ccc12)c1ccc2c(c1)S(=O)(=O)CCC2 [ASAP-0008674] | 131.878% and 83.309% and 125.339%

Same assay, conditions: Vero E6/TMPRSS2 MERS-CoV antiviral effect with P-gp inhibitor; read-out: ec90

SMILES | EC90
CC(C)[C@H](Nc1ncnc2[nH]ccc12)c1ccc2c(c1)S(=O)(=O)CCC2 [ASAP-0008674] | > 5 µM
